Source: US10730884B2, “Substituted indole compound derivatives as dengue viral replication inhibitors” (Janssen Pharmaceuticals, Inc., priority 2016, dated 2020)
Read-outs that look alike come from different tables or passages of the source.

Assays:
Vero cells [1] = settings: African green monkey
DENV-3 strain H87 = experiment: Tetravalent RT-qPCR assay, serotype 3; assay type: cell-based, Dengue virus; settings: for EC50: Dengue virus, DENV3, Vero, 72 h, RT-qPCR serotype 3 H87, Protocol A, Vero cells, day 3, read-out: EC50; for SI: RT-qPCR serotype 3 H87
Method: (§1) The antiviral activity of the compounds of the invention was tested against DENV-1 strain TC974#666 (NCPV), DENV-2 strain 16681, DENV-3 strain H87 (NCPV) and DENV-4 strain H241 (NCPV) in a RT-qPCR assay. Therefore, Vero cells were infected with either DENV-1, or -2, or -3, or -4 in the presence or absence of test compounds. At day 3 post-infection, the cells were lysed and cell lysates were used to prepare cDNA of both a viral target (the 3′UTR of DENV; Table 2) and a cellular reference gene (β-actin, Table 2). Subsequently, a duplex real time PCR was performed on a Lightcycler480 instrument. The generated Cp value is inversely proportional to the amount of RNA expression of these targets. Inhibition of DENV replication by a test compound result in a shift of Cp's for the 3′UTR gene. On the other hand, if a test compound is toxic to the cells, a similar effect on β-actin expression will be observed. The comparative ΔΔCp method is used to calculate EC50, which is based on the relative gene expression of the target gene (3′UTR) normalized with the cellular housekeeping gene (β-actin). In addition, CC50 values are determined based on the Cp values acquired for the housekeeping gene β-actin.
(§2) The culture medium consisted of minimal essential medium supplemented with 2% of heat-inactivated fetal calf serum, 0.04% gentamycin (50 mg/mL) and 2 mM of L-glutamine. Vero cells, obtained from ECACC, were suspended in culture medium and 75 μL/well was added in 96-well plates (10000 cells/well), which already contain the antiviral compounds. […] In addition, each plate contains wells which are assigned as virus controls (containing cells and virus in the absence of compound) and cell controls (containing cells in the absence of virus and compound). Once the cells were added in the plates, the plates were incubated in a fully humidified incubator (37° C., 5% CO2) until the next day. Dengue viruses serotype-1, 2, 3 and 4 were diluted in order to obtain a Cp of ˜22-24 in the assay. Therefore, 25 μL of virus suspension was added to all the wells containing test compound and to the wells assigned as virus control. In parallel, 25 μL of culture medium was added to the cell controls. Next, the plates were incubated for 3 days in a fully humidified incubator (37° C., 5% CO2). After 3 days, the supernatant was removed from the wells and the cells were washed twice with ice-cold PBS (˜100 μL). The cell pellets within the 96-well plates were stored at −80° C. for at least 1 day. Next, RNA was extracted using the Cells-to-CT™ lysis kit, according to the manufacturer's guideline (Life Technologies). The cell lysates can be stored at −80° C. or immediately used in the reverse transcription step.
(§3) In preparation of the reverse transcription step, mix A (table 3A) was prepared and 7.57 μL/well was dispensed in a 96-well plate. After addition of 5 μL of the cell lysates, a five minute denaturation step at 75° C. was performed (table 3B). Afterwards, 7.43 μL of mix B was added (table 3C) and the reverse transcription step was initiated (table 3D) to generate cDNA.
(§4) Finally, a RT-qPCR mix was prepared, mix C (table 4A), and 22.02 μL/well was dispensed in 96-well LightCycler qPCR plates to which 3 μL of cDNA was added and the qPCR was performed according to the conditions in table 4B on a LightCycler 480.
(§5) Using the LightCycler software and an in-house LIMS system, dose response curves for each compound were calculated and the half maximal effective concentration (EC50) and the half maximal cytotoxic concentration (CC50) were determined (Tables 5-8).

DENV-4 strain H241 = experiment: Tetravalent RT-qPCR assay, serotype 4; assay type: cell-based, Dengue virus; settings: for EC50: Dengue virus, DENV4, Vero, 72 h, RT-qPCR serotype 4 H241, Protocol A, Vero cells, day 3; for SI: RT-qPCR serotype 4 H241
Method: as §1, §2, §3, §4, §5

DENV-2 16681 strain = experiment: DENV-2 antiviral assay (eGFP-labeled virus, Vero cells); assay type: cell-based, Dengue virus; settings: for EC50: DENV-2 16681 eGFP, Vero cells, MOI 0.5, 3 days; for SI: SI=CC50/EC50, DENV-2 antiviral assay
Method: The antiviral activity of all the compounds of the invention was tested against the DENV-2 16681 strain which was labeled with enhanced green fluorescent protein (eGPF). The culture medium consists of minimal essential medium supplemented with 2% of heat-inactivated fetal calf serum, 0.04% gentamycin (50 mg/mL) and 2 mM of L-glutamine. Vero cells, obtained from ECACC, were suspended in culture medium and 25 μL was added to 384-well plates (2500 cells/well), which already contain the antiviral compounds. Typically, these plates contain a 5-fold serial dilution of 9 dilution steps of the test compound at 200 times the final concentration in 100% DMSO (200 nL). […] Finally, each plate contains wells which are assigned as virus controls (containing cells and virus in the absence of compound), cell controls (containing cells in the absence of virus and compound) and medium controls (containing medium in the absence of cells, virus and compounds). To the wells assigned as medium control, 25 μL of culture medium was added instead of Vero cells. Once the cells were added to the plates, the plates were incubated for 30 minutes at room temperature to allow the cells to distribute evenly within the wells. Next, the plates were incubated in a fully humidified incubator (37° C., 5% CO2) until the next day. Then, DENV-2 strain 16681, labeled with eGFP, was added at a multiplicity of infection (MOI) of 0.5. Therefore, 15 μL of virus suspension was added to all the wells containing test compound and to the wells assigned as virus control. In parallel, 15 μL of culture medium was added to the medium and cell controls. Next, the plates were incubated for 3 days in a fully humidified incubator (37° C., 5% CO2). At the day of the read out, the eGFP fluorescence was measured using an automated fluorescence microscope at 488 nm (blue laser). Using an in-house LIMS system, inhibition dose response curves for each compound were calculated and the half maximal effective concentration (EC50) was determined. Therefore, the percent inhibition (I) for every test concentration is calculated using the following formula: I=100*([…])/(SVC−SCC); ST, SCC and SVC are the amount of eGFP signal in the test compound, cell control and virus control wells, respectively. The EC50 represents the concentration of a compound at which the virus replication is inhibited with 50%, as measured by a 50% reduction of the eGFP fluorescent intensity compared to the virus control. The EC50 is calculated using linear interpolation (Table 1).

DENV-2 strain 16681 = experiment: Tetravalent RT-qPCR assay, serotype 2; assay type: cell-based, Dengue virus; settings: for EC50: Dengue virus, DENV2, Vero, 72 h, RT-qPCR serotype 2 16681, Protocol A, Vero cells, day 3; for SI: RT-qPCR serotype 2 16681
Method: as §1, §2, §3, §4, §5

DENV-1 strain TC974#666 = experiment: Tetravalent RT-qPCR assay, serotype 1; assay type: cell-based, Dengue virus; settings: for EC50: Dengue virus, DENV1, Vero, 72 h, RT-qPCR serotype 1 TC974#666, Protocol A, Vero cells, day 3, read-out: EC50; for SI: RT-qPCR serotype 1 TC974#666
Method: as §1, §2, §3, §4, §5

in vitro [2] = assay type: cell-based; settings: African green monkey, CC50
Method: as §1, §2, §5

in vitro [3] = settings: African green monkey
DENV-2 = settings: analogous DENV-2 antiviral assay, reported activity; cited from earlier work
Vero cells [4] = experiment: in vitro; assay type: cell-based; settings: African green monkey, 3 days
Method: as §1, §2, §5

[5] = Dengue virus, DENV2, Vero, 72 h

SMILES | CC50 (Vero cells [1]) | EC50 (DENV-3 strain H87) | SI (DENV-3 strain H87) | EC50 (DENV-4 strain H241) | SI (DENV-4 strain H241) | EC50 (DENV-2 16681 strain) | SI (DENV-2 16681 strain) | EC50 (DENV-2 strain 16681) | SI (DENV-2 strain 16681) | EC50 (DENV-1 strain TC974#666) | SI (DENV-1 strain TC974#666) | CC50 at 3 days (in vitro [2]) | EC50 (DENV-2 16681 strain; [5]) | CC50 (in vitro [3]) | melting point | EC50 (DENV-2) | SI (DENV-2) | CC50 (Vero cells [4])
COc1cc(NC(C(=O)c2c[nH]c3cc(OC(F)(F)F)c(C)cc23)c2ccc(F)cc2OC)cc(OCCO)c1 (single isomer, unassigned) [Compound 4B] | 3300 nM | 120 nM | 16 | 300 nM | 8.1 | 8.1 nM | 409 | 6.6 nM | 553 | 24 nM | 128 | 3800 nM |  |  |  |  |  | 
COc1cc(NC(C(=O)c2c[nH]c3cc(OC)c(Cl)cc23)c2ccc(F)cc2OC)cc(OCCO)c1 (single isomer, unassigned) [Compound 2A] | 4500 nM | 34 nM | 90 | 230 nM | 9.1 | 0.71 nM | 6340 | 1 nM | 3350 | 9.2 nM | 350 | 2900 nM |  |  |  |  |  | 
COc1cc(NC(C(=O)c2c[nH]c3ccc(C)cc23)c2ccc(F)cc2OC)cc(OCCO)c1 (racemic) [Compound 5, 2-(4-fluoro-2-methoxyphenyl)-2-((3-(2-hydroxyethoxy)-5-methoxyphenyl)amino)-1-(5-methyl-1H-indol-3-yl)ethanone] |  |  |  |  |  |  | 3190 |  |  |  |  |  | 4.8 nM | 14000 nM | 199 °C |  |  | 
COc1cc(NC(C(=O)c2c[nH]c3c(C)cc(Cl)cc23)c2ccc(F)cc2OC)cc(OCCO)c1 (single isomer, unassigned) [Compound 1A] | 3600 nM | 39 nM | 49 | 220 nM | 8.7 | 1.7 nM | 2070 | 3.2 nM | 1080 | 6.2 nM | 461 | 2900 nM |  |  |  |  |  | 
COc1cc(NC(C(=O)c2c[nH]c3c(C)cc(Cl)cc23)c2ccc(F)cc2OC)cc(OCCO)c1 (racemic) [Compound 1, 1-(5-chloro-7-methyl-1H-indol-3-yl)-2-(4-fluoro-2-methoxyphenyl)-2-((3-(2-hydroxyethoxy)-5-methoxyphenyl)amino)ethanone] |  |  |  |  |  |  | 1800 |  |  |  |  |  | 2.7 nM | 4900 nM | 118 °C |  |  | 
COc1cc(NC(C(=O)c2c[nH]c3cc(F)c(C)cc23)c2ccc(Cl)cc2OC)cc(OCCO)c1 (racemic) [Compound 9, 2-(4-chloro-2-methoxyphenyl)-1-(6-fluoro-5-methyl-1H-indol-3-yl)-2-((3-(2-hydroxyethoxy)-5-methoxyphenyl)amino)ethanone] |  |  |  |  |  |  | 2480 |  |  |  |  |  | 1.2 nM | 3100 nM | 177 °C |  |  | 
COc1cc(NC(C(=O)c2c[nH]c3ccccc23)c2ccc(F)cc2)cc(OCCO)c1 (centres unmarked) [(350) of WO-2013/045516] |  |  |  |  |  |  |  |  |  |  |  |  |  |  |  | 10 nM | 3462 | 
COc1cc(NC(C(=O)c2c[nH]c3cc(F)c(C)cc23)c2ccc(F)cc2OC)cc(OCCO)c1 (racemic) [Compound 3, 2-(4-fluoro-2-methoxyphenyl)-1-(6-fluoro-5-methyl-1H-indol-3-yl)-2-((3-(2-hydroxyethoxy)-5-methoxyphenyl)amino)ethanone] |  |  |  |  |  |  | 1140 |  |  |  |  |  | 3.5 nM | 4000 nM | 197 °C |  |  | 
COc1cc(NC(C(=O)c2c[nH]c3cc(OC)c(C)c(F)c23)c2ccc(Cl)cc2OC)cc(OCCO)c1 (single isomer, unassigned) [Compound 12B] | 4600 nM | 20 nM | >106 | 180 nM | >15 | 0.26 nM | >48400 | 0.25 nM | >12200 | 4.9 nM | >508 | > 2200 nM |  |  |  |  |  | > 2500 nM
COc1cc(NC(C(=O)c2c[nH]c3cc(OC)c(Cl)cc23)c2ccc(F)cc2OC)cc(OCCO)c1 (racemic) [Compound 2, 1-(5-chloro-6-methoxy-1H-indol-3-yl)-2-(4-fluoro-2-methoxyphenyl)-2-((3-(2-hydroxyethoxy)-5-methoxyphenyl)amino)ethanone] |  |  |  |  |  |  | 4410 |  |  |  |  |  | 1.5 nM | 6700 nM | 210 °C |  |  | 
